Experimental data taken from publication PMC12476087, “Loading of Dicarboxylatoplatinum(II)‐NHC Complexes in Bacterial Ghosts as an Advanced Development in Cancer Therapy” (Archiv Der Pharmazie, 2025).

Columns and labels:
Type in all cases: cell-based
[1] = test system: A2780wt cells; assay: MTT assay, A2780wt cells; settings: for IC50: MTT assay, 72 h exposure
Description: Carboplatin, a second‐generation platinum drug commonly used as part of standard first‐line chemotherapy for ovarian carcinoma, was examined as a reference compound due to its clinical relevance. Additionally, the nonmalignant bone marrow stromal cell line HS‐5 was included as a control to assess specificity of the complexes toward cancer cells.
Unloaded BGs (4 × 10^8 EcN or 2 × 10^8 Ec NM522, which is equivalent to the highest tested BG concentration) were tested as controls.
The exponentially growing cells were seeded at a density of 8 × 10^3 cells/well (A2780wt/cis) or 1 × 10^4 cells/well (HS‐5), respectively, into clear flat‐bottom 96‐well plates in triplicates. […] After another 72 h of incubation, the cellular metabolic activity was measured as an indicator of cell viability employing an MTT assay. Hereby, 20 µL of a 5 mg/mL MTT solution was added to each well, respectively. After 3 h of incubation, the medium was discarded, and the formazan crystals formed were dissolved in DMSO for 15 min with gentle shaking. […] The OD at 620 nm was subtracted from the OD at 595 nm. The OD of the medium was subtracted to exclude the unspecific staining caused by FCS‐containing medium. Cells treated with vehicle control (0.1% DMF) only were set at 100% metabolic activity. The IC50 values were calculated with Prism 8.0 (GraphPad Software Inc., Boston, MA, USA) using nonlinear regression. Significance was evaluated via a one sample t‐test performed with Prism 8.0.

[2] = test system: A2780wt cells; assay: Annexin V/PI staining and FACS analysis, A2780wt; settings: w/o BGs, 25 µM, 24 h; for late apoptosis/ necrosis: Annexin V positive/PI positive; for early apoptosis: percentage of cells (Annexin V positive/PI negative)
Description: Therefore, we aimed to evaluate the apoptosis and necrosis inducing potential of complexes 1–4 via a fluorescent‐activated cell sorting (FACS) analysis with Annexin V/propidium iodide (PI) staining in A2780wt and A2780cis cells. Cells were treated for 24 h with both the free and BG‐loaded forms of each compound at 25 µM. Carboplatin (50 µM) served as a reference.
To evaluate the mode of cell death, a FACS measurement after staining with Annexin V and PI was conducted. First, 0.3 × 10^6 A2780wt or A2780cis cells were seeded into 12‐well plates and were allowed to adhere for 24 h. The compounds were added at 25 µM, either diluted from a freshly prepared DMF stock solution (0.1% DMF) or freshly thawed when loaded in BGs. After 24 h of incubation, the cells were harvested with accutase and washed with PBS. The cells were then resuspended in 200 µL of PBS each and 1 µL of PI solution (Sigma‐Aldrich, Taufkirchen, Germany) and 1 µL of Annexin V‐FITC (MabTag GmbH, Friesoythe, Germany) were added to each sample. These were then incubated for 20 min at rt under light‐protected conditions and afterward transferred onto ice. The percentage of apoptotic cells was determined by analyzing Annexin V positive /PI negative cells using a BD LSRFortessa flow cytometer and BD FACSDiva software (both BD Biosciences, San Jose, CA, USA). The apoptosis analysis included the evaluation of early apoptosis (Annexin V positive/PI negative) and late apoptosis/necrosis (Annexin V positive /PI positive).

[3] = test system: caspase‐3 in A2780wt cells; assay: Caspase‐3 activity assay (ApoTox‐Glo), A2780wt; settings: w/o BGs, 25 µM, 24 h
Description: Furthermore, caspase‐3 activation serves as a primary hallmark of apoptosis. Therefore, we evaluated this induction with a luminescence‐based caspase‐3 activity assay on A2780wt cells.
The caspase‐3 assay was performed to investigate the induction of apoptosis by the compounds. It was performed by employing the commercially available ApoTox‐Glo Triplex Assay (Promega Corporation, Madison, USA), which specifically correlates cell viability and toxicity to apoptosis. In brief, A2780wt and A2780cis cells, respectively, were seeded at a density of 8 × 10^3 cells per well into an opaque‐walled 96‐well plate with solid bottoms. […] After incubation, 20 µL of the provided viability/toxicity reagent was added and incubated for further 30 min on an orbital shaker at 37°C. […] Then, 100 µL of Caspase‐Glo 3/7 reagent was added, gently shaken for 30 s and further incubated for 30 min. The caspase activation was determined via the measurement of the luminescence. Analysis was performed on the BioTek Synergy H1 (Agilent Technologies, Santa Clara, USA).

[4] = test system: A2780wt cells; assay: ATP luminescence assay, A2780wt; settings: w/o BGs, 25 µM, 24 h
From the text: (§1) As a second potential mode of cell death, ICD has been investigated. Thus, two hallmarks of ICD, namely release of adenosine triphosphate (ATP) and calreticulin translocation to the plasma membrane have been analyzed in detail. Given that some platinum complexes, including the clinically used drug oxaliplatin [27], as well as BGs, are known inducers of ICD, we investigated the potential of BGs loaded with platinum(II)‐NHC complexes to trigger this process. […] Untreated cells (without compound and without BGs) were tested as negative controls.
(§2) The ATP assay was performed by employing the commercially available ATPlite Luminescence Assay System 96‐well (revvity, Massachusetts, USA). In brief, A2780wt and A2780cis cells, respectively, were seeded at a density of 8 × 10^3 cells per well into an opaque‐walled 96‐well plate with solid bottoms. […] After incubation, 50 µL of the provided mammalian cell lysis solution was added and incubated for further 5 min on an orbital shaker at 700 rpm. Then, 50 µL of a provided substrate solution was added and again incubated for 5 min on an orbital shaker at 700 rpm. The plate was allowed to dark adapt for 10 min and then the luminescence was measured. Analysis was performed on the BioTek Synergy H1.

[5] = test system: A2780cis cells; assay: ATP luminescence assay, A2780cis; settings: w/o BGs, 25 µM, 24 h
From the text: as §1, §2

[6] = test system: surface calreticulin on A2780cis cells; assay: Immunofluorescent surface calreticulin staining, A2780cis; settings: w/o BGs, 25 µM, 24 h
Description: Oxaliplatin, a known metal‐based ICD inducer, was included for comparison.
A2780wt or A2780cis cells were seeded at a density of 1.2 × 10^5 on cover slips and allowed to adhere for 24 h. […] Subsequently, the cells were washed again three times with PBS and they were incubated after adding the secondary antibody (Alexa‐Fluor‐conjugated anti‐rabbit, 1:200), for 45 min at rt. Subsequently, the cells were washed again three times with PBS and they were mounted on slides with mounting medium. After letting them dry overnight, visualization was performed by spinning disk confocal microscopy. […] Acquired images were background subtracted, individual cells were manually segmented, and fluorescence intensity for the calreticulin staining was quantified with a FIJI software. Two repetitions of the experiment were performed, where at least 20 cells per condition were analyzed and the mean intensity of each sample was calculated, respectively.

Molecule | IC50 [1] [µM] | late apoptosis/ necrosis [2] | early apoptosis [2] | x-fold caspase-3 induction compared to untreated cells [3] [x-fold] | ATP concentration [4] [µM] | ATP concentration [5] [µM] | x‐fold intensity of surface calreticulin compared to untreated cells [6] [x‐fold] | metabolic activity of A2780wt cells ([1]; free (non‐loaded) compound, 25 µM, 72 h) [%]
CCN1[C]([Pt]([O]C(=O)C(Cl)Cl)([O]C(=O)C(Cl)Cl)[SH](C)(C)=O)N(CC)c2ccccc21 [Compound 3, (SP‐4‐2)‐Bis(dichloroacetato)(1,3‐diethylbenzimidazol‐2‐ylidene)(dimethylsulfoxide)platinum(II)] | 58.9 ± 2.05 | 28.8 ± 2.50 | 15.3 ± 1.17 | 3.06 ± 1.20 | 0.15 ± 0.08 | 0.28 ± 0.04 | 0.75 ± 0.28 | –
CCN1[C]([Pt]([O]C(C)=O)([O]C(C)=O)[SH](C)(C)=O)N(CC)c2ccccc21 [Compound 1, (SP‐4‐2)‐Diacetato(1,3‐diethylbenzimidazol‐2‐ylidene)(dimethylsulfoxide)platinum(II)] | 31.1 ± 2.39 | 29.1 ± 2.56 | 15.9 ± 1.55 | 2.64 ± 0.32 | 0.20 ± 0.04 | 0.23 ± 0.05 | 1.18 ± 0.37 | 85
(SP‐4‐2)‐Bis(dichloroacetato)bis(1,3‐diethylbenzimidazol‐2‐ylidene)platinum(II) [Compound 4] | 37.9 ± 1.58 | 46.9 ± 3.01 | 13.2 ± 0.22 | 1.89 ± 0.03 | 0.32 ± 0.13 | 0.10 ± 0.03 | 1.13 ± 0.36 | –
(SP‐4‐2)‐Diacetatobis(1,3‐diethylbenzimidazol‐2‐ylidene)platinum(II) [Compound 2] | 40.8 ± 2.34 | 25.9 ± 5.70 | 9.37 ± 0.31 | 0.39 ± 0.13 | 0.32 ± 0.03 | 0.31 ± 0.04 | 1.02 ± 0.05 | –
